Results published in US20140295012A1, “LATENT HUMAN IMMUNODEFICIENCY VIRUS REACTIVATION” (priority 2011, published 2014).
Values joined by “and” are separate entries in the source; they are usually repeats but may differ in a detail not shown here. Equal values may be shown once. *1 amine or outer side, *2 acyl side, *3 side chain or, on linkers, in order; H or OH if unused. Where a SMILES comes first, the peptide text is derived from it. Bridges are numbered along the chain shown (N, C = ends). Roman numbers before positions name the chains, in order. [ ]: non-standard residue; d: D form. Actinocin(9to1) = Cc1c2oc3c(C)ccc(C(=O)[*:1])c3nc-2c(C(=O)[*:2])c(N)c1=O; NMeV = CN[C@H](C(=O)O)C(C)C; Sar = CNCC(=O)O

What was measured:
[1] = tested on: latently HIV-1 infected CA5 T cells; format: cell-based
[2] = tested on: latently HIV-1 infected primary T cells; assay: Reactivation of latent HIV-1 infection in primary T cells (GFP); format: cell-based; conditions: 24 hours
Procedure: Latently HIV-1 infected primary T cells were treated for 24 hours with aclacinomycin (ACM) or dactinomycin (ActD), or with the anti-CD3 monoclonal antibody (mAb) OKT3. Reactivation levels were determined as a percentage of GFP-positive cells 24 hours after stimulation. Viability of the cells correlates with the size of the symbol.
To determine if aclacinomycin or dactinomycin were capable of reactivating a latent HIV-1 infection in primary T cells, latently HIV-1 infected primary T cells were treated with aclacinomycin or dactinomycin or with the anti-CD3 monoclonal antibody OKT3 for 24 hours. Reactivation of the latent HIV-1 infection was observed by increasing levels of GFP fluorescence.

[3] = tested on: latently HIV-1 infected CA5 T cells; format: cell-based; remark: listed apart in the source
Procedure: Infection levels in the cell cultures were monitored by flow cytometric analysis of EGFP expression. Flow cytometric analysis was performed on a GUAVA EasyCyte (Millipore; Billerica, Mass.), or a LSRII (Becton & Dickinson; Franklin Lakes, N.J.).
Bacterial growth. Bacteria from various sources were isolated on TSA II agar plates containing 5% sheep blood. Bacterial isolates were then grown in RPMI 1640 medium supplemented with 10% FBS. After two days of incubation at 37° C. bacteria were pelleted and resuspended in RPMI medium to an optical density (OD600) of 8, aliquoted and frozen at −80° C. Unless otherwise indicated, Massilia timonae was grown in RPMI 1640 medium supplemented with 10% FBS. Typically, medium was inoculated with Massilia timonae from frozen stocks to an OD600 of 0.01. After 48 hours at 37° C., the culture was centrifuged at 3200 g to separate bacteria from the culture medium. Bacteria were resuspended in fresh medium to an OD600 of 8 and frozen to be used as references and stock cultures. The supernatant was then centrifuged at 10,000 g for 20 minutes and sterilized by passage through a 0.2 μm PVDF filter with low protein binding ability. HRF activity was determined by its ability to reactivate latent HIV-1 infection in CA5 cells. Only supernatants of which 6 μl reactivated infection in at least 60% of CA5 cells were used to study HRF properties.
Flow cytometry. Infection levels in the cell cultures were monitored by flow cytometric (FCM) analysis of GFP expression. FCM analysis was performed on a GUAVA EasyCyte (GUAVA Technologies, Inc.; Millipore; Billerica, Mass.) and a BD FACSCalibur or a LSRII (Becton & Dickinson; Franklin Lakes, N.J.). Cell sorting experiments were performed using a FACSAria™ Flow Cytometer (Becton&Dickinson). Data analysis was performed using either CellQuest (Becton&Dickinson) or GUAVA Express (GUAVA Technologies, Inc.).
To identify the optimal concentration of dactinomycin, CA5 T cells were pretreated with increasing concentrations of dactinomycin (0.0001 and 1 μg/ml), and then left untreated or stimulated with a sub-optimal concentration of HRF or TNF-α. Representative results for stimulation with HRF are depicted in FIG. 3. The chosen HRF concentration has only minimal HIV-1 reactivating effect by itself (15% reactivation over background). Twenty four hours after activator addition, levels of HIV-1 reactivation were determined as the percentage of GFP-positive cells using flow cytometric analysis, which allowed for the simultaneous determination of cell viability. […] Optimal pretreatment time was 18 hours. Maximum reactivation effects were seen 48 hours after stimulation.

[4] = tested on: latently HIV-2 infected J2574 reporter T cells; assay: Priming of latent HIV-2 infection in J2574 reporter T cells infected with HIV-2 7312A; format: cell-based
Procedure: J2574 reporter T cells were infected with HIV-2 7312A and a latently infected cell population was established (>90% latently infected cells). […] Reactivation levels were determined 24 hours post HRF activation by quantifying the level of GFP-positive cells using flow cytometric analysis.
J2574 reporter T cells were generated by retrovirally transducing Jurkat T cells with a HIV-1 reporter construct (p2574) in which the HIV-1 LTR controls the expression of GFP. The HIV-1 LTR and the GFP gene are separated by a 2,500 base pair (bp) spacer element. Lentiviral particles were produced by transfecting 293T cells with p2574 and supplying gag-pol-rev-tat in trans. VSV-G was used as viral envelope protein. Following lentiviral transduction of Jurkat cells, all cells that spontaneously expressed GFP were removed by cell sorting. The GFP-negative population was then activated with PMA to identify all cells that would harbor an inducible LTR-GFP-LTR integration event. Cells that turned GFP-positive following stimulation were again selected by cell sorting. GFP expression in this population ceased after a few days leaving a population of GFP-negative reporter cells. The amount of founder cells for this population is calculated to represent >50,000 individual integration events.
To determine the ability of dactinomycin to prime a latent HIV-2 infection, a latently HIV-2 infected population of GFP reporter T cells was tested. Briefly, to create the latent HIV-2 infected population, J2574 reporter cells were infected with HIV-2 7312A and a population of latently HIV-2 infected cells was generated by removing the actively infected, GFP-positive cells using a fluorescence activated cell sorter.

IL-8, TNF-α, and IFN-γ = assay: Cytokine secretion by PBMCs (BioPlex analysis); format: cell-based, human; conditions: 24 hours
Procedure: FIGS. 8A-8C show HRF induced NF-κB and cytokine expression in peripheral blood mononuclear cells (PBMCs). […] PBMCs were activated with optimal concentrations of either PHA-L or with HRF. Cells were harvested at the indicated time points. Nuclear extracts were generated and NF-κB p50 activity and NF-κB p65 activity were determined using the TransAM™ NF-κB family ELISA kit (Active Motif). […] PBMCs from four different healthy donors were stimulated with an anti-CD3/CD28 antibody combination and infected with a GFP reporter virus on day 4 post-stimulation. HIV-1 replication was monitored in the absence (C) or presence of HRF for 5 days and the achieved HIV-1 infection levels were determined by flow cytometric analysis for the percentage of EGFP-positive cells. […] Culture supernatants were collected after 24 hours and the concentrations of a panel of cytokines was determined by BioPlex analysis. […]
Following stimulation of the peripheral blood mononuclear cells (PBMCs) with PHA-L or HIV-1 reactivating factor (HRF), supernatant samples were collected at time points between 12 and 48 hours post stimulation. […] Therefore, cytokine levels in culture supernatant samples from all donors were determined at the 24 hour time point using a customized Milliplex mAP kit for the simultaneous analysis of six human cytokines (IL-2, IL-4, IL-6, IL-8, TNF-α and IFN-γ). […]

Molecule	priming effects with low concentrations of TNF-α or PMA as reactivating agents [1]	priming effect for reactivation by TNF-α ([1]; CA5 cells, same sense integration, 4 ng/ml, 18 hours pretreatment)	concentrations acting as inhibitor of HIV-1 expression and reactivation ([1]; observed at the onset of drug toxicities) [ng/mL]	concentrations at which a priming effect was observed ([1]; pretreatment, then sub-optimal HRF or TNF-α) [ng/mL]	reactivation of latent HIV-1 infection [2]	priming effect on HIV-1 reactivation by sub-optimal dose of HRF ([3]; CA5 cells pretreated with increasing concentrations)	concentration of optimal priming activity ([3]; pretreatment, then sub-optimal HRF or TNF-α, both T cell lines)	concentration range that efficiently primed latent HIV-2 infection for reactivation ([4]; 18 hours pretreatment, sub-optimal HRF) [ng/mL]	HIV-2 reactivation levels ([4]; costimulation: dactinomycin pretreatment plus sub-optimal HRF)	efficiency of HIV-1 reactivation ([1]; compared with Salmonella typhimurium flagellin)	potency of activating latent HIV-1 provirus ([1]; compared with TNFα or PMA)	pro-inflammatory cytokine secretion (IL-8, TNF-α, and IFN-γ) (IL-8, TNF-α, and IFN-γ)	HIV-1 reactivation over background ([3]; sub-optimal HRF concentration by itself) [%]	HIV-2 reactivation (cells) ([4]; sub-optimal dose of HRF by itself) [%]
Cc1c2oc3c(C)ccc(C(=O)N[C@@H]4C(=O)N[C@H](C(C)C)C(=O)N5CCC[C@H]5C(=O)N(C)CC(=O)N(C)[C@@H](C(C)C)C(=O)O[C@@H]4C)c3nc-2c(C(=O)N[C@@H]2C(=O)N[C@H](C(C)C)C(=O)N3CCC[C@H]3C(=O)N(C)CC(=O)N(C)[C@@H](C(C)C)C(=O)O[C@@H]2C)c(N)c1=O [dactinomycin] (I: T[dV]P[Sar][NMeV] / II: T[dV]P[Sar][NMeV]; ester I:1-I:C, II:1-II:C; linker I:N-II:N via Actinocin(9to1))	Priming effects of dactinomycin were also observed	exerted its priming effect in each integration scenario	≥ 10	≥ 0.5	capable of reactivating latent HIV-1 infections	strong priming effect	about 4 ng/ml and ~3.18 nM	2 to 8	up to 90%	–	–	–	–	–
HRF: flagellin polypeptide from Massilia timonae (SEQ ID NO:10), used as bacterial culture supernatant (protein) MASVINTNVPSLNSQRNLSTSQAQLNTSIQRLSSGMRINSAKDDAAGLAISDRMNSQIKGMTQATRNANDGVSMAQTAEGALSSSGDILQRIRELAVQSSNSSNSASDRKALQTEVTQLSSELNRIANTTEFNGQKLMDGTLGTANFQVGANAGQLISMTGANFNTSVYGNNQIAGDAAKAAATTSAAATGAFTISGYLGTSAAINTTDADTAKTIAASINNVTGDTGVTATARTDSFLKSAGGAHTMSLASDNSGTGEAVDISFTVGDGGDTADDYAAAISAFNAQTAKTGVTAEYDAVEKGLKLTNSAGENISLTNKAGSADIDMDTYAADGALMASALTLEAGDVGVANGRVTMDSEKSFSVAEGTDTGFELADSSALKSVAKIDISDFEGAQEAIKVADAALSAVNSQRAEYGALQSRFESAISNLSSSTENLSASRSRIVDTDFAAETAKMTRGQILQQAGTSMLAQANSLPNGVLSLLRG	–	–	–	–	–	–	–	–	–	same efficiency as Salmonella typhimurium flagellin	potency comparable to that of TNFα or PMA	did not induce meaningful levels	15	10
